Assay results as given in EP1859811B1, “Use of conjugates of amatoxins or phallotoxins with macromolecules for tumor and inflammation therapy” (Faulstich, Heinz, Dr., priority 2006, dated 2007).

Key:
Jurkat = test: inhibition of proliferation by [3H]thymidine incorporation, Jurkat; assay type: cell-based; details: Jurkat cells (CD3); Fig.3
Protocol: Monoclonal antibodies were conjugated with ß-amanitin-N-hydoxysuccinimide ester by incubating the antibody in PBS (2mg/mL) with 10-30 equivalents of the activated ß-amanitin derivative at 4°C under gentle shaking. After reaction for 16h the protein derivative was separated from unreacted amanitin by gelfiltration chromatography on Sephadex G25 using PBS as solvent. The combined protein fractions were concentrated to a protein concentration of ca 2 mg/mL and a toxin concentration of ca. 5 x 10^-5M. The ratio toxin : mAB was in the range of 5-15 : 1.
Three different cell lines, MCF-7, Jurkat, and Raji, exposing the specific receptors EpCAM, CD3, and CD71, respectively, were tested for the inhibition of proliferation by such ß-amanitin-monoclonal antibody conjugates, as followed by [^3H]thymidine incorporation. […] In all cases was amanitin conjugated to a specific antibody distinctly more toxic to the corresponding cell line than free amanitin, or amanitin conjugated to unspecific antibodies.

[1] = biological target: DNA-dependent RNA polymerase II of mammalian cells (Homo sapiens, UniProt P24928+P30876); details: complex between amanitin and RNA-polymerase II; cited from earlier work
Jurkat cells = test: apoptosis in cultures of Jurkat cells incubated with toxin; assay type: cell-based; details: own unpublished results
Text: Amatoxins (α-amanitin, β-amanitin, amanin) are cyclic peptides composed of 8 amino acids. They can be isolated from Amanita phalloides mushrooms or prepared from the building blocks by synthesis. Amatoxins inhibit specifically the DNA-dependent RNA polymerase II of mammalian cells, and by this transcription and protein biosynthesis of the cells affected. Inhibition of transcription in a cell causes stop of growth and proliferation. Though not covalently bound, the complex between amanitin and RNA-polymerase II is very tight (KD = 3nM). Dissociation of amanitin from the enzyme is a very slow process what makes recovery of an affected cell unlikely.
Phallotoxins (phalloidin, phallacidin, aminophalloidin) are cyclic peptides composed of 7 aminoacids. They bind specifically to the cytoskeletal protein actin in its polymeric form (microfilaments). By this, they prevent depolymerization of the microfilaments and disturb the proper function of the actin cytoskeleton. The actin cytoskeleton is a dense meshwork of microfilaments undergoing, under the control of actin-associated proteins, rapid cycles of assembly and disassembly essential for dynamic processes such as cell division and migration. Likewise, invasion by metastatic cells is thought to be dependent on actin. […]

actin = test: binding to actin

OKT3
times more inhibitory for the proliferation than the amanitin conjugate of an unspecific monoclonal antibody (ALH-419) (Jurkat): 330 times

amanitin
Kd [1]: 3 nM

phalloidin oleate
programmed cell death (apoptosis) (Jurkat cells): caused apoptosis

thiopropionyl-aminophalloidin
actin binding compared with phalloidin (actin): binds actin as tightly as phalloidin itself

α-amanitin
programmed cell death (apoptosis) (Jurkat cells): undergoes programmed cell death (apoptosis)
